# Read-outs that look alike come from different tables or passages of the source.
# Key:
# [1] = tested on: E. coli lptD4213; experiment: Membrane potential and permeability assay; details: E. coli lptD4213, 15 min treatment
# [2] = tested on: B. subtilis dfrA and folC CRISPRi knockdown mutants; type: cell-based; details: growth (OD600) after 14 h relative to DMSO
# [3] = biological target: E. coli dihydrofolate reductase (FolA) (Escherichia coli, UniProt P0ABQ4); experiment: Dihydrofolate reductase activity assay; type: biochemical
# Sequence of E. coli dihydrofolate reductase (FolA) (P0ABQ4 whole entry): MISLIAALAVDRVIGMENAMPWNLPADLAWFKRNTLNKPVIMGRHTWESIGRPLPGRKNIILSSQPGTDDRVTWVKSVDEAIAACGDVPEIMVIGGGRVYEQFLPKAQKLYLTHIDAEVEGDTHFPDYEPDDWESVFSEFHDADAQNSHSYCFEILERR
# [4] = tested on: A. baumannii AB17978; experiment: Minimum inhibitory concentration assay
# [5] = tested on: S. aureus MRSA USA300; experiment: Minimum inhibitory concentration assay
# [6] = tested on: E. coli lptD4213; experiment: Minimum inhibitory concentration assay; details: for MIC: concentration printed as 1× MIC
# [7] = tested on: B. subtilis 168; experiment: Minimum inhibitory concentration assay; type: cell-based
# [8] = Maximal tolerated dose in mice; type: in vivo; details: intravenously
# [9] = tested on: N. gonorrhoeae; experiment: Minimum inhibitory concentration assay; details: bacterial culture
# [10] = tested on: mammalian cells (HEK293, HK-2, HLF, PBMC)
# [11] = Mouse liver microsomal stability; type: in vitro ADME; details: 2 μM, 0.5 mg/mL microsomes, NADPH and UDPGA, 1 hour; compared to verapamil
# [12] = tested on: N. gonorrhoeae ATCC 700825; experiment: Neisseria gonorrhea vaginal infection model; type: in vivo, BALB/c mice; details: 10 mg/kg i.v. at 2 and 14 h post-infection, CFUs at 26 h; p < 0.05 vs vehicle
# [13] = tested on: PBMC; experiment: Mammalian cell cytotoxicity; type: cell-based; details: 72 hours
# [14] = tested on: B. subtilis; experiment: Isolation of resistant mutants by plating; type: cell-based; details: ~10^8 CFUs
# [15] = tested on: A. baumannii AB17978; experiment: Galleria mellonella killing assay; type: in vivo; details: lethal dose of A. baumannii AB17978; 67 μg/larva; p < 0.001
# [16] = tested on: E. coli lptD4213 ΔthyA; experiment: Growth of wild-type and ΔthyA cells with thymine; type: cell-based; details: excess thymine in the medium
# [17] = tested on: A. baumannii AB17978; experiment: Serial passaging assay to evolve resistance; type: cell-based, Acinetobacter baumannii
# [18] = tested on: MRSA USA300; experiment: Isolation of resistant mutants by plating on drug agar; type: cell-based, Staphylococcus aureus; details: ~10^8 CFU on agar with 25 μg/mL SCH-79797 (4X MIC)
# [19] = tested on: P. aeruginosa; experiment: Minimum inhibitory concentration assay
# [20] = tested on: E. coli lptD4213; experiment: Colony forming units assay; type: cell-based; details: E. coli lptD4213, 3-h treatment, 2× MIC
# [21] = tested on: G. mellonella; experiment: Galleria mellonella host toxicity; type: in vivo; details: injection at four times the MIC toward A. baumannii
# [22] = animals; ref Gobbetti et al., 2012; Strande et al., 2007; cited from earlier work
# [23] = tested on: folate metabolite pools in E. coli NCM3722; experiment: Metabolomics of folate metabolite pools; type: cell-based; details: 13.9 μg/mL (1× MIC), 15 min
# [24] = tested on: HEK293; type: cell-based
# [25] = tested on: E. cloacae; experiment: Minimum inhibitory concentration assay
# [26] = tested on: E. coli NCM3722; experiment: Minimum inhibitory concentration assay; type: cell-based; details: Escherichia coli
# [27] = tested on: HK-2; type: cell-based
# [28] = tested on: S. aureus MRSA USA300; experiment: Serial passaging assay to evolve resistance; type: cell-based, Staphylococcus aureus; details: S. aureus MRSA USA300, 25 days, sub-lethal concentrations
# [29] = tested on: HLF; type: cell-based
# [30] = biological target: dihydrofolate reductase (FolA) (Escherichia coli, UniProt P0ABQ4); experiment: Thermal proteome profiling; type: binding; details: E. coli lptD4213 intact cells and cell lysates
# Sequence of dihydrofolate reductase (FolA) (P0ABQ4 whole entry): as above
# [31] = tested on: S. aureus MRSA USA300 persister cells; experiment: S. aureus MRSA persister cell assay; type: cell-based, Staphylococcus aureus; details: 2 h treatment
molecule,measurement,setting,value
N#CC(C#N)=NNc1cccc(Cl)c1 [CCCP],membrane potential and permeability (DiOC2(3) and TO-PRO-3 staining),[1],expected shifts in both DiOC2(3) and TO-PRO-3 staining
Nc1nc(N)c2c(ccc3[nH]ccc32)n1 [IRS-10],sensitivity of dfrA and folC CRISPRi knockdowns,[2],maintains the ability to inhibit folate metabolism
same,IC50,"[3]; read-out: IC50 against FolA, 60 μM NADPH and 100 μM DHF, Hill fit",0.065 ± 0.019 µM
same,potency compared to the parent molecule SCH-79797,[4],decreased the potency
same,potency compared to the parent molecule SCH-79797,[5]; MRSA USA300,decreased the potency
same,potency compared to the parent molecule SCH-79797,[6],increased the potency
same,MIC,[6],0.4 µg/mL
same,potency compared to the parent molecule SCH-79797,[7]; B. subtilis 168,decreased the potency
same,membrane potential and permeability (DiOC2(3) and TO-PRO-3 staining),[1],does not disrupt membrane polarity or permeability
Nc1nc(N)c2c(ccc3c2ccn3Cc2ccc(-c3ccccc3)cc2)n1 [IRS-16],sensitivity of dfrA and folC CRISPRi knockdowns,[2],hypersensitive
same,adverse effects,"male CD-1 mice, single i.v. dose 15 mg/kg",no adverse effects
same,time at concentrations above the N. gonorrhoeae MIC,"mice, 15 mg/kg i.v., MIC 0.03 μg/mL",~48 h
same,half-life,"mouse, in vivo, iv, 15 mg/kg",15.8 h
same,maximal tolerated dose (MTD),[8],15 mg/kg
same,MIC,[9],0.03 µg/mL
same,increase of therapeutic window relative to SCH-79797,[10],> 100 fold
same,stability in mouse liver microsomes,[11],extremely stable
same,MIC,[6],0.02 µg/mL
same,vaginal load of N. gonorrhoeae (CFU),[12],significantly reduced the vaginal load
same,MIC against PBMC,[13],greater than the maximal drug concentrations tested
same,membrane potential and permeability (DiOC2(3) and TO-PRO-3 staining),[1],disrupted membrane permeability and polarity
"CC(C)c1ccc(Cn2ccc3c4c(N)nc(NC5CC5)nc4ccc32)cc1 [SCH-79797, N3-cyclopropyl-7-[[4-(1-methylethyl)phenyl]methyl]-7H-pyrrolo[3,2-f]quinazoline-1,3-diamine]",isolation of resistant mutants on plating,[14],unable to isolate SCH-79797-resistant mutants
same,sensitivity of dfrA and folC CRISPRi knockdowns,[2],sensitized
same,IC50,[3],8.6 ± 3 µM
same,survival of infected larvae,[15],significantly prolonged the survival
same,sensitivity of ΔthyA versus wild-type cells,[16],no change in sensitivity
same,MIC,"[5]; Staphylococcus aureus, MRSA|USA300",6.3 µg/mL
same,resistance on serial passaging,[17],resistance remained constant
same,isolation of resistant mutants on plating,[18],unable to isolate stable SCH-79797-resistant mutants
same,MIC,[19],greater the maximal drug concentrations tested
same,bactericidal activity (CFU),[20],potent and rapid bactericidal activity
same,host toxicity,[21],did not result in higher host toxicity than the solvent-only control
same,safely tolerated dose,[22],at least 5 mg/kg
same,"rise of 7,8-dihydrofolate (DHF) level compared to untreated cells",[23],~ 10 fold
same,growth inhibition of mammalian cells relative to antibacterial dose,[24],at doses comparable to the doses needed to kill bacteria
same,MIC,[25],greater the maximal drug concentrations tested
same,MIC,[26],13.9 µg/mL
same,growth inhibition of mammalian cells relative to antibacterial dose,[27],at doses comparable to the doses needed to kill bacteria
same,resistance on serial passaging,[28],no SCH-79797-resistant mutants emerged
same,MIC,"[7]; Bacillus subtilis, 168",3.1 µg/mL
same,growth inhibition of mammalian cells relative to antibacterial dose,[29],at doses comparable to the doses needed to kill bacteria
same,thermal stability of dihydrofolate reductase (FolA),[30],significantly shifted the thermal stability
same,membrane potential and permeability (DiOC2(3) and TO-PRO-3 staining),[1],significant defects in both membrane polarization and permeability
same,viability of persister cells (CFU),[31],robustly killed these persister cells
CC(C)c1ccccc1 [isopropylbenzene],sensitivity of dfrA and folC CRISPRi knockdowns,[2],no effect
same,membrane potential and permeability (DiOC2(3) and TO-PRO-3 staining),[1],disrupts both membrane polarity and permeability
CO[C@@H]1[C@@H](OC(N)=O)[C@@H](O)[C@H](Oc2ccc3c(O)c(NC(=O)c4ccc(O)c(CC=C(C)C)c4)c(=O)oc3c2C)OC1(C)C [novobiocin],resistance on serial passaging,[28],resistance gradually increased
same,membrane potential and permeability (DiOC2(3) and TO-PRO-3 staining),[1],do not shift DiOC2(3) or TO-PRO-3 staining
CO[C@H]1/C=C/O[C@@]2(C)Oc3c(C)c(O)c4c(O)c(c(/C=N/N5CCN(C)CC5)c(O)c4c3C2=O)NC(=O)/C(C)=C\C=C\[C@H](C)[C@H](O)[C@@H](C)[C@@H](O)[C@@H](C)[C@H](OC(C)=O)[C@@H]1C [rifampicin],membrane potential and permeability (DiOC2(3) and TO-PRO-3 staining),[1],do not shift DiOC2(3) or TO-PRO-3 staining
COc1cc(Cc2cnc(N)nc2N)cc(OC)c1OC [trimethoprim],sensitivity of dfrA and folC CRISPRi knockdowns,[2],hypersensitive
same,sensitivity of ΔthyA versus wild-type cells,[16],led to trimethoprim resistance
same,MIC,[26],0.15 µg/mL
same,membrane potential and permeability (DiOC2(3) and TO-PRO-3 staining),[1],no significant changes in DiOC2(3) and TO-PRO-3 staining
daptomycin,viability of persister cells (CFU),[31],did not reduce the number of CFUs
nisin,resistance on serial passaging,[28],resistance gradually increased
same,membrane potential and permeability (DiOC2(3) and TO-PRO-3 staining),[1],expected shifts in both DiOC2(3) and TO-PRO-3 staining
polymyxin B,membrane potential and permeability (DiOC2(3) and TO-PRO-3 staining),[1],expected shifts in both DiOC2(3) and TO-PRO-3 staining

# Reference: publication PMC7780349 (Cell, 2020)
